Source: BindingDB's records for doi:10.1021/jm980032l (Wake Forest University School of Medicine, 1998)

target: Sigma non-opioid intracellular receptor 1 (Cavia porcellus) (UniProt Q60492); experiment: Binding affinity against sigma-1 receptor in guinea pig brain membranes using [3H](+)-pentazocine as the radioligand
Sequence (Q60492 whole entry, looked up): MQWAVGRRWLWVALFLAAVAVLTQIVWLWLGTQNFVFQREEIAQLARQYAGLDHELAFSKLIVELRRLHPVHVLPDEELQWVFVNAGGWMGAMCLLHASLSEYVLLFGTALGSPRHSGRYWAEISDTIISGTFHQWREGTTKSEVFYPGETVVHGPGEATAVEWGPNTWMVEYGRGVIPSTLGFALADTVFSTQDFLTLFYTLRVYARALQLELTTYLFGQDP

SMILES	Ki [nM]
COc1cc(CC(=O)NC2CCN(Cc3ccccc3)CC2)cc(OC)c1 [N-(1-Benzyl-piperidin-4-yl)-2-(3,5-dimethoxy-phenyl)-acetamide]	121
O=C(Cc1ccc(O)cc1)NC1CCN(Cc2ccccc2)CC1 [N-(1-Benzyl-piperidin-4-yl)-2-(4-hydroxy-phenyl)-acetamide]	286
COc1ccccc1CC(=O)NC1CCN(Cc2ccccc2)CC1 [N-(1-Benzyl-piperidin-4-yl)-2-(2-methoxy-phenyl)-acetamide]	30.8
Nc1ccc(CC(=O)NC2CCN(Cc3ccccc3)CC2)cc1 [2-(4-Amino-phenyl)-N-(1-benzyl-piperidin-4-yl)-acetamide]	470
COc1ccc(NC(=O)NC2CCN(Cc3ccccc3)CC2)c(OC)c1 [1-(1-Benzyl-piperidin-4-yl)-3-(2,4-dimethoxy-phenyl)-urea]	30.1
COc1cccc(CC(=O)NC2CCN(Cc3ccccc3)CC2)c1 [N-(1-Benzyl-piperidin-4-yl)-2-(3-methoxy-phenyl)-acetamide]	10.5
O=C(Cc1ccccc1C(F)(F)F)NC1CCN(Cc2ccccc2)CC1 [N-(1-Benzyl-piperidin-4-yl)-2-(2-trifluoromethyl-phenyl)-acetamide]	8.7
O=C(Cc1cc(F)cc(F)c1)NC1CCN(Cc2ccccc2)CC1 [N-(1-Benzyl-piperidin-4-yl)-2-(3,5-difluoro-phenyl)-acetamide]	7.63
O=C(Cc1ccc(Cl)cc1Cl)NC1CCN(Cc2ccccc2)CC1 [N-(1-Benzyl-piperidin-4-yl)-2-(2,4-dichloro-phenyl)-acetamide]	9.66
O=C(Cc1c(Cl)cccc1Cl)NC1CCN(Cc2ccccc2)CC1 [N-(1-Benzyl-piperidin-4-yl)-2-(2,6-dichloro-phenyl)-acetamide]	7.28
CSc1ccc(CC(=O)NC2CCN(Cc3ccccc3)CC2)cc1 [N-(1-Benzyl-piperidin-4-yl)-2-(4-methylsulfanyl-phenyl)-acetamide]	27.1
COc1cccc(C(O)CNC2CCN(Cc3ccccc3)CC2)c1OC (stereo not given) [2-(1-Benzyl-piperidin-4-ylamino)-1-(2,3-dimethoxy-phenyl)-ethanol]	32.1
COc1ccc(CC(=O)NC2CCN(Cc3ccccc3)CC2)cc1 [N-(1-Benzyl-piperidin-4-yl)-2-(4-methoxy-phenyl)-acetamide]	66.4
O=C(Cc1ccc(C(F)(F)F)cc1)NC1CCN(Cc2ccccc2)CC1 [N-(1-Benzyl-piperidin-4-yl)-2-(4-trifluoromethyl-phenyl)-acetamide]	9.84
CSc1ccc(NC(=O)NC2CCN(Cc3ccccc3)CC2)cc1 [1-(1-Benzyl-piperidin-4-yl)-3-(4-methylsulfanyl-phenyl)-urea]	63.9
COc1ccc(OC)c(CC(=O)NC2CCN(Cc3ccccc3)CC2)c1 [N-(1-Benzyl-piperidin-4-yl)-2-(2,5-dimethoxy-phenyl)-acetamide]	43.4
O=C(Cc1ccc(O)c(Cl)c1)NC1CCN(Cc2ccccc2)CC1 [N-(1-Benzyl-piperidin-4-yl)-2-(3-chloro-4-hydroxy-phenyl)-acetamide]	23.8
O=C(Cc1ccccc1O)NC1CCN(Cc2ccccc2)CC1 [N-(1-Benzyl-piperidin-4-yl)-2-(2-hydroxy-phenyl)-acetamide]	18.8
O=C(Cc1ccc([N+](=O)[O-])cc1[N+](=O)[O-])NC1CCN(Cc2ccccc2)CC1 [N-(1-Benzyl-piperidin-4-yl)-2-(2,4-dinitro-phenyl)-acetamide]	14.2
O=C(Cc1cccc(O)c1)NC1CCN(Cc2ccccc2)CC1 [N-(1-Benzyl-piperidin-4-yl)-2-(3-hydroxy-phenyl)-acetamide]	110
COc1cc(CC(=O)NC2CCN(Cc3ccccc3)CC2)cc(OC)c1OC [N-(1-Benzyl-piperidin-4-yl)-2-(3,4,5-trimethoxy-phenyl)-acetamide]	80
COc1ccc(CC(=O)NC2CCN(Cc3ccccc3)CC2)cc1OC [N-(1-Benzyl-piperidin-4-yl)-2-(3,4-dimethoxy-phenyl)-acetamide]	352
O=C(Cc1ccccc1[N+](=O)[O-])NC1CCN(Cc2ccccc2)CC1 [N-(1-Benzyl-piperidin-4-yl)-2-(2-nitro-phenyl)-acetamide]	26.9
O=C(Cc1ccc2c(c1)OCO2)NC1CCN(Cc2ccccc2)CC1 [2-Benzo[1,3]dioxol-5-yl-N-(1-benzyl-piperidin-4-yl)-acetamide]	7.32
O=C(Cc1ccc([N+](=O)[O-])cc1)NC1CCN(Cc2ccccc2)CC1 [N-(1-Benzyl-piperidin-4-yl)-2-(4-nitro-phenyl)-acetamide]	18
O=C(Cc1ccc(Cl)cc1)NC1CCN(Cc2ccccc2)CC1 [N-(1-Benzyl-piperidin-4-yl)-2-(4-chloro-phenyl)-acetamide]	6.46

Continued, values first:

Ki [nM]	SMILES
2.89	O=C(Cc1ccccc1Br)NC1CCN(Cc2ccccc2)CC1 [N-(1-Benzyl-piperidin-4-yl)-2-(2-bromo-phenyl)-acetamide]
2.45	O=C(Cc1cccc(F)c1)NC1CCN(Cc2ccccc2)CC1 [N-(1-Benzyl-piperidin-4-yl)-2-(3-fluoro-phenyl)-acetamide]
4.21	O=C(Cc1cc(F)ccc1F)NC1CCN(Cc2ccccc2)CC1 [N-(1-Benzyl-piperidin-4-yl)-2-(2,5-difluoro-phenyl)-acetamide]
3.43	O=C(Cc1ccc(F)cc1)NC1CCN(Cc2ccccc2)CC1 [N-(1-Benzyl-piperidin-4-yl)-2-(4-fluoro-phenyl)-acetamide]
5.8	O=C(Cc1c(F)cccc1F)NC1CCN(Cc2ccccc2)CC1 [N-(1-Benzyl-piperidin-4-yl)-2-(2,6-difluoro-phenyl)-acetamide]
1.4	O=C(Cc1cccc(Cl)c1)NC1CCN(Cc2ccccc2)CC1 [N-(1-Benzyl-piperidin-4-yl)-2-(3-chloro-phenyl)-acetamide]
0.87	O=C(Cc1cccc(Br)c1)NC1CCN(Cc2ccccc2)CC1 [N-(1-Benzyl-piperidin-4-yl)-2-(3-bromo-phenyl)-acetamide]
3.17	O=C(Cc1ccc(F)c(F)c1)NC1CCN(Cc2ccccc2)CC1 [N-(1-Benzyl-piperidin-4-yl)-2-(3,4-difluoro-phenyl)-acetamide]
4.56	O=C(Cc1cccc([N+](=O)[O-])c1)NC1CCN(Cc2ccccc2)CC1 [N-(1-Benzyl-piperidin-4-yl)-2-(3-nitro-phenyl)-acetamide]
3.87	O=C(Cc1ccc(F)cc1F)NC1CCN(Cc2ccccc2)CC1 [N-(1-Benzyl-piperidin-4-yl)-2-(2,4-difluoro-phenyl)-acetamide]
3.08	O=C(Cc1ccccc1Cl)NC1CCN(Cc2ccccc2)CC1 [N-(1-Benzyl-piperidin-4-yl)-2-(2-chloro-phenyl)-acetamide]
3.92	O=C(Cc1cccc(C(F)(F)F)c1)NC1CCN(Cc2ccccc2)CC1 [N-(1-Benzyl-piperidin-4-yl)-2-(3-trifluoromethyl-phenyl)-acetamide]
5.22	O=C(Cc1ccc(Cl)c(Cl)c1)NC1CCN(Cc2ccccc2)CC1 [N-(1-Benzyl-piperidin-4-yl)-2-(3,4-dichloro-phenyl)-acetamide]

target: Sigma non-opioid intracellular receptor 1 (Cavia porcellus) (UniProt Q60492); experiment: Compound tested for binding affinity towards sigma 1 receptor in quinea pig brain membranes using [3H](+)-pentazocine as the radioligand.

Ki [nM]	SMILES
> 1000	O=C(Cc1ccc(O)c(O)c1)NC1CCN(Cc2ccccc2)CC1 [N-(1-Benzyl-piperidin-4-yl)-2-(3,4-dihydroxy-phenyl)-acetamide]
